Source: EP2860184A1, “Dihydrogenphosphate salt of Tenofovir disoproxil” (Zentiva, k.s., priority 2013, dated 2015)
Structures can show the parent of a compound that is named as a salt.

Tests used:
[1] = Chemical stability stress test (HPLC purity before and after); type: physicochemical; conditions: for Starting HPLC purity (%): before the stress test; for HPLC purity (%) after the stress test: stress conditions: 80°C for 46 hours, 2760 min
Experimental: Physico-chemical properties (stability and solubility) of Tenofovir disoproxil dihydrogenphosphate were compared with other known salts (Tenofovir disoproxil fumarate, citrate, succinate, L-tartrate, D-tartrate, maleate) prepared according to published procedures. Table 2: Chemical stability of Tenofovir disoproxil and its salts (stress conditions: 80°C for 46 hours)
Column: Zorbax Eclipse XDB C18 RRHD, 100 x 3.0 mm (I.D.) x 1.8 um (Agilent), Run Time: 11.5 min., Injection Volume: 2 µl, Mobile Phase: MFA: 10mM K2HPO4 pH=7,0; MFB: ACN; MFA: 90-40-40-90; t: 0-7-9-9,5; F: 0,5 ml/min; 35°C

[2] = API solid form change during drug product manufacture (wet granulation); type: physicochemical
Text: Moreover, we observed partial the conversion (about 30 %) of Tenofovir disoproxil fumarate (Formula II) in Tenofovir disoproxil hemifumarate (Formula III) during our formulation trials using wet granulation process.
Diffraction patterns were obtained with laboratory X'PERT PRO MPD PANalytical diffractometer, radiation used CuKα (λ = 1.542/Å). Generator settings: excitation voltage 45 kV, anodic current 40 mA. Scan description: scan type - gonio, measurement range 2 - 40º 2θ, step size 0.01º 2θ, step time: 0.5 s. Samples were measured as received on Si plate (zero background holder). Incident beam optics: programmable divergence slits (irradiated length 10 mm), 10 mm mask, 1/4º anti-scatter fixed slit, 0.02 rad Soller slits. Diffracted beam optics: X'Celerator detector, scanning mode, active length 2.122º, 0.02 rad Soller slits, anti-scatter slit 5.0 mm, Ni filter.
Tenofovir disoproxil dihydrogenphosphate (300 g), lactose monohydrate (206 g), microcrystalline cellulose (Avicel pH 101; 50 g), croscarmellose sodium (30 g), polyvinylpyrolidone K-25 (20 g) and magnesium stearate (10 g) were sieved. The mixture was loaded to high shear granulator. Purified water (150 ml) was sprayed on the blend in short time intervals and the mixture was kneaded to granules. The wet granules were dried in an oven at 60°C. The dried granules were milled and sieved. […]

[3] = Apparent solubility and dissolution rate of the salts (Figure 3); type: physicochemical; conditions: compared with other salts, including Tenofovir disoproxil fumarate
Text: The active substance solubility is important for bioavailability of the drug.
• Figure 1: DSC of Tenofovir disoproxil dihydrogenphosphate • Figure 2: 1H NMR of Tenofovir disoproxil dihydrogenphosphate • Figure 3: The apparent solubility and dissolution rate of Tenofovir disoproxil salts • Figure 4: Typical HPLC chromatogram of Tenofovir disoproxil dihydrogenphosphate prepared from Tenofovir disoproxil base • Figure 5: SEM images of Tenofovir disoproxil dihydrogenphosphate prepared from Tenofovir disoproxil • Figure 6: Typical HPLC chromatogram of Tenofovir disoproxil dihydrogenphosphate prepared from Tenofovir disoproxil fumarate • Figure 7: SEM images of Tenofovir disoproxil dihydrogenphosphate prepared from Tenofovir disoproxil fumarate

[4] = in the presence of increased humidity and/or temperature; cited from earlier work

SMILES | Starting HPLC purity (%) [1] | HPLC purity (%) after the stress test [1] | Chemical stability compared with other salts ([1]; compared with fumarate, citrate, succinate, L-tartrate, D-tartrate, maleate, 80°C for 46 hours) | changes in API solid form ([2]; manufacturing of a drug product) | Solubility [3] | conversion in Tenofovir disoproxil hemifumarate ([2]; formulation trials using wet granulation process) | solid form conversion [4]
CC(C)OC(=O)OCOP(=O)(CO[C@H](C)Cn1cnc2c(N)ncnc21)OCOC(=O)OC(C)C [Tenofovir disoproxil L-tartrate] | 98.10% | 21.12% | – | – | – | – | –
CC(C)OC(=O)OCOP(=O)(CO[C@H](C)Cn1cnc2c(N)ncnc21)OCOC(=O)OC(C)C [Tenofovir disoproxil (free base), 9-[-2-(R)-[[bis[[(isopropoxycarbonyl)oxy]methoxy]phosphinoyl]methoxy]propyl] adenine] | 95.66% | 6.13% | – | – | – | – | –
CC(C)OC(=O)OCOP(=O)(CO[C@H](C)Cn1cnc2c(N)ncnc21)OCOC(=O)OC(C)C [Tenofovir disoproxil D-tartrate] | 99.66% | 25.51% | – | – | – | – | –
CC(C)OC(=O)OCOP(=O)(CO[C@H](C)Cn1cnc2c(N)ncnc21)OCOC(=O)OC(C)C [Tenofovir disoproxil dihydrogenphosphate] | 99.66% | 97.69% | the most stable salt of Tenofovir disoproxil | no changes in API solid form | superior to other salts | – | –
CC(C)OC(=O)OCOP(=O)(CO[C@H](C)Cn1cnc2c(N)ncnc21)OCOC(=O)OC(C)C [Tenofovir disoproxil succinate] | 99.04% | 54.16% | – | – | – | – | –
CC(C)OC(=O)OCOP(=O)(CO[C@H](C)Cn1cnc2c(N)ncnc21)OCOC(=O)OC(C)C [Tenofovir disoproxil fumarate] | 99.81% | 4.08% | – | – | – | about 30% | converts into Tenofovir disoproxil hemifumarate
